Usually Kd stands for the constant that tells how readily two partners part at equilibrium. A higher Kd goes with weaker binding. A word on the IC50: it is the concentration that gives 50% inhibition. Low values mean greater potency in that assay, high ones weaker potency in that assay.

Where a name gives a salt, the structure may show the parent alone.

Our source for the Kd and IC50 values is patent US20120129811A1, “TRICYCLIC INHIBITORS OF PRO-MATRIX METALLOPROTEINASE ACTIVATION” (priority 2010, published 2012).

Assay [1] has as its target T1, proMMP9(20-445;ΔFnII) (SEQ ID NO:6) (Homo sapiens, UniProt P14780, DEL216-390).
T1 construct: start methionine (N); made in house; host or cells: E. coli BL21(DE3) RIL
T1 sequence (P14780 with tags, fused parts or gaps DEL216-390): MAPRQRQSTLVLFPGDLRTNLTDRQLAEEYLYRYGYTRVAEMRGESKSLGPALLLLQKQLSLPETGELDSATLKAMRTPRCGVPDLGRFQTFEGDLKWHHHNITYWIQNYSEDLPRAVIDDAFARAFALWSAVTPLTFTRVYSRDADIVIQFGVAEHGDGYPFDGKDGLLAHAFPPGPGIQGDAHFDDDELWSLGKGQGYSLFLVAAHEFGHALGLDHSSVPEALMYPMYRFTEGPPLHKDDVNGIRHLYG
Nature of the assay: ThermoFluor binding assay with proMMP9(20-445;ΔFnII). The method, then:
(§1) The ThermoFluor® (TF) assay is a 384-well plate-based binding assay that measures thermal stability of proteins (Biomol Screen 2001, 6, 429-40; Biochemistry 2005, 44, 5258-66). The experiments were carried out using instruments available from Johnson & Johnson Pharmaceutical Research & Development, LLC. TF dye used in all experiments was […] (1,8-ANS) (Invitrogen: A-47).
(§2) Compounds were arranged in a pre-dispensed plate (Greiner Bio-one: 781280), wherein compounds were serially diluted in 100% DMSO across 11 columns within a series. Columns 12 and 24 were used as DMSO reference and contained no compound. For multiple compound concentration-response experiments, the compound aliquots (50 nL) were robotically predispensed directly into black 384-well polypropylene PCR microplates (Abgene: TF-0384/k) using a Cartesian Hummingbird liquid handler (DigiLab, Holliston, Mass.). Following compound dispense, protein and dye solutions were added to achieve the final assay volume of 3 μL. The assay solutions were overlayed with 1 μL of silicone oil (Fluka, type DC 200: 85411) to prevent evaporation.
(§3) Assay plates were robotically loaded onto a thermostatically controlled PCR-type thermal block and then heated from 40 to 90° C. at a ramp-rate of 1° C./min for all experiments. Fluorescence was measured by continuous illumination with UV light (Hamamatsu LC6) supplied via fiber optics and filtered through a band-pass filter (380-400 nm; >60D cutoff). Fluorescence emission of the entire 384-well plate was detected by measuring light intensity using a CCD camera (Sensys, Roper Scientific) filtered to detect 500±25 nm, resulting in simultaneous and independent readings of all 384 wells. A single image with 20-sec exposure time was collected at each temperature, and the sum of the pixel intensity in a given area of the assay plate was recorded vs temperature and fit to standard equations to yield the Tm (J Biomol Screen 2001, 6, 429-40).
(§4) Thermodynamic parameters necessary for fitting compound binding for each proMMP were estimated by differential scanning calorimetry (DSC) and from ThermoFluor® data. The heat capacity of unfolding for each protein was estimated from the molecular weight and from ThermoFluor® dosing data.
ThermoFluor® with proMMP9(20-445; ΔFnII (SEQ ID NO:6)
The protein sample preparations included a desalting buffer exchange step via a PD-10 gravity column (GE Healthcare). The desalting buffer exchange was performed prior to diluting the protein to the final assay concentration of 2.8 μM proMMP9(20-445;ΔFnII) (SEQ ID NO:6). The concentration of proMMP9(20-445;ΔFnII) (SEQ ID NO:6) was determined spectrophotometrically based on a calculated extinction coefficient of ε280=39880 M^−1 cm^−1, a calculated molecular weight of 28.2 kDa, and calculated pI of 5.5. ThermoFluor® reference conditions were define as follows: 80 μg/mL (2.8 μM) proMMP9(20-445;ΔFnII) (SEQ ID NO:6), 50 μM 1,8-ANS, pH 7.0 Buffer (50 mM HEPES pH 7.0, 100 mM NaCl, 0.001% Tween-20, 2.5 mM MgCl2, 300 μM CaCl2). The thermodynamic parameters for proMMP9(20-445;ΔFnII) (SEQ ID NO:6) are as follows: Tm (° C.)=72 (+/−0.1), ΔUH(Tm) (cal mol^−1)=160000(+/−5000), ΔUSTm (cal mol^−1 K^−1)=434, ΔUCp (cal mol^−1 K^−1)=2400.
(In DSF a fluorescence change marks the thermal transition of the protein.)

For assay [2], the target named is T2, proMMP9(67-444;ΔFnII) (SEQ ID NO:5) (Homo sapiens, UniProt P14780, DEL216-390).
T2 construct: start methionine (N); made in house; host or cells: E. coli BL21(DE3) RIL
T2 sequence (P14780 with tags, fused parts or gaps DEL216-390): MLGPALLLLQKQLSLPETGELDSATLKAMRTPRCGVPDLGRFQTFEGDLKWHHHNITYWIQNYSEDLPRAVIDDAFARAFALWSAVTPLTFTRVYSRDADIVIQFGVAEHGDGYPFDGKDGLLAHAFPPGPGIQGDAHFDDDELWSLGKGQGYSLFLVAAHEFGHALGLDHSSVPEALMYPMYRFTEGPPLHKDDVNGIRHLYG
Nature of the assay: ThermoFluor binding assay with proMMP9(67-444;ΔFnII). As to the method:
as §1, §2, §3, §4
ThermoFluor® with proMMP9(67-444;ΔFnM (SEQ ID NO:5)
The protein sample preparations had to include a desalting buffer exchange step via a PD-10 gravity column (GE Healthcare). The desalting buffer exchange was performed prior to diluting the protein to the final assay concentration of 3.5 μM proMMP9(67-444;ΔFnII) (SEQ ID NO:5). The concentration of proMMP9(67-444;ΔFnII) (SEQ ID NO:5) was determined spectrophotometrically based on a calculated extinction coefficient of ε280=33900 M^−1 cm^−1, a calculated molecular weight of 22.6 kDa, and calculated pI of 5.20. ThermoFluor® reference conditions were defined as follows: 80 μg/mL (3.5 μM) proMMP9(67-444;ΔFnII) (SEQ ID NO:5), 50 μM 1,8-ANS, pH 7.0 Buffer (50 mM HEPES pH 7.0, 100 mM NaCl, 0.001% Tween-20, 2.5 mM MgCl2, 300 μM CaCl2). The thermodynamic parameters for proMMP9(67-444;ΔFnII) (SEQ ID NO:5) are as follows: Tm (° C.)=63 (+/−0.1), ΔUH(Tm)(cal mol^−1)=105000(+/−5000), ΔUS(Tm) (cal mol^−1 K^−1)=450, ΔUCp (cal mol^−1 K^−1)=2000.

Assay [3] concerns the target T3, full-length proMMP9(1-707) activation by catalytic MMP3 (Homo sapiens, UniProt P14780, R574P).
T3 construct: made in house; host or cells: proMMP9: HEK293 (secreted); MMP3: E. coli
As to the kind of experiment: proMMP9/MMP3 P126 Activation Assay. Format: biochemical. As to the method:
proMMP9/MMP3 P126 Activation Assay
The reaction volume was 50 μL. […] Reactivity of residual MMP3 towards P-126 substrate was minimal under these conditions.

T3 sequence (P14780 20-707 R574P): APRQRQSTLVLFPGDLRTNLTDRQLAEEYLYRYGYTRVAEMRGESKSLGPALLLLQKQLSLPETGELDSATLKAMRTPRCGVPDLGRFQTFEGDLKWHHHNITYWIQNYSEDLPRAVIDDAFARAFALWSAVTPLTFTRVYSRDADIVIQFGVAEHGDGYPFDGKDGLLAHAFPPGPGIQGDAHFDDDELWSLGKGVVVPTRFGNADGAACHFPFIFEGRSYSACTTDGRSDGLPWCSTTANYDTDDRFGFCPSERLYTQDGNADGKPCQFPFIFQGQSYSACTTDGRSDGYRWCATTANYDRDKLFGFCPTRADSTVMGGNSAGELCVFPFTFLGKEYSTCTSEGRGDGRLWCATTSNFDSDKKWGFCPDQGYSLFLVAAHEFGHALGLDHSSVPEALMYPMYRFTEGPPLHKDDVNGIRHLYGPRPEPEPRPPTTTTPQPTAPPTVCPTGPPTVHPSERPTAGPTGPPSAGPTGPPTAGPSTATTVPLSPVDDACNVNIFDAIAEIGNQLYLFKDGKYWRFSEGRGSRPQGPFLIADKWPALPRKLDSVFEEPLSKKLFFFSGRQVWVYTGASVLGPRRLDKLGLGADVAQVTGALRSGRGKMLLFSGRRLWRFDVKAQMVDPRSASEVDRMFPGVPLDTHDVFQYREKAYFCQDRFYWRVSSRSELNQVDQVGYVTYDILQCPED

For `CCOc1ccccc1Nc1nc2c(ccc3sc(N)nc32)s1` [Example 3, N^7-(2-Ethoxy-phenyl)-benzo[2,1-d;3,4-d′]bisthiazole-2,7-diamine.TFA], the equilibrium dissociation constant (Kd) is 3.2 µM in assay [1] and 1.6 µM in assay [2]. For the same compound, it took 1.4 µM to reach half-maximal inhibition in assay [3] (IC50).
The matching figures for `CCOc1ccccc1Nc1nc2c(ccc3sc(Nc4ccccc4OCC)nc32)s1` [Example 4, N,N′-Bis-(2-ethoxy-phenyl)-benzo[2,1-d;3,4-d′]bisthiazole-2,7-diamine.TFA]: 67 µM, 30 µM and 4.7 µM.
For `COc1ccc(Cl)cc1Nc1nc2c(ccc3nc(N)sc32)s1` [Example 7, N^7-(5-Chloro-2-methoxy-phenyl)-benzo[1,2-d;3,4-d′]-bisthiazole-2,7-diamine.TFA] the same measures were 2.3 µM, 0.2 µM and 1.7 µM.
Turning to `Cc1nc2ccc3sc(Nc4ccccc4OC(C)C)nc3c2s1` [Example 17, (2-Isopropoxy-phenyl)-(2-methyl-benzo[1,2-d;3,4-d′]-bisthiazol-7-yl)-amine.HCl], the Kd in assay [1] and in assay [2] was greater than 95 µM throughout. This compound also showed an IC50 in assay [3] of 5.8 µM.
With `Cc1[nH]c2c(ccc3sc(Nc4cc(C(N)=O)ccc4OC(C)C)nc32)c1C` [Example 45, 3-(6,7-Dimethyl-8H-3-thia-1,8-diaza-as-indacen-2-ylamino)-4-isopropoxy-benzamide.HCl], the Kd in assay [1] turned out to be 0.78 µM; in assay [2] it was 3.3 µM. The same compound registered an IC50 in assay [3] of 3.9 µM.
On to `COc1ccccc1Nc1nc2c(ccc3c2ncn3C)s1` [Example 46, (2-Methoxy-phenyl)-(6-methyl-6H-imidazo[4′,5′:3,4]benzo[2,1-d]thiazol-2-yl)-amine.HCl], for which the Kd in assay [1] is 0.64 µM; in assay [2], 0.24 µM. This compound also registered an IC50 in assay [3] of 0.15 µM.
For `CC(C)Oc1ccc(C(N)=O)cc1Nc1nc2c(ccc3[nH]nnc32)s1` [Example 47, 4-Isopropoxy-3-(3H-thiazolo[4′,5′:3,4]benzo[1,2-d][1,2,3]triazol-7-ylamino)-benzamide.HCl] the same measures were 1 µM, 1.6 µM and 0.6 µM.
For `COc1c(F)cc(C(N)=O)cc1Nc1nc2c(ccc3c2ncn3C)s1` [Example 48, 3-Fluoro-4-methoxy-5-(6-methyl-6H-imidazo[4′,5′:3,4]benzo[2,1-d]thiazol-2-ylamino)-benzamide.HCl] the same measures were 1.9 µM, 0.81 µM and 0.36 µM.
The matching figures for `COc1ccc(NC(C)=O)cc1Nc1nc2c(ccc3c2ncn3C)s1` [Example 49, N-[4-Methoxy-3-(6-methyl-6H-imidazo[4′,5′:3,4]benzo[2,1-d]thiazol-2-ylamino)-phenyl]-acetamide.HCl]: 4.6 µM, 1.6 µM and 1.3 µM.
Take `COc1cc([N+](=O)[O-])ccc1Nc1nc2c(ccc3c2ncn3C)s1` [Example 83, (2-Methoxy-4-nitro-phenyl)-(6-methyl-6H-imidazo[4′,5′:3,4]benzo[2,1-d]thiazol-2-yl)-amine.HCl]: the IC50 in assay [3] is roughly 0.1 µM.
Same read-out and setting: the same measure for `COc1ccc(C#N)cc1Nc1nc2c(ccc3ocnc32)s1` [Example 84, 4-Methoxy-3-(thiazolo[4′,5′:3,4]-benzo[2,1-d]oxazol-7-ylamino)-benzonitrile]: 0.75 µM; for `CC(C)Cc1ccc(C(N)=O)cc1Nc1nc2c(ccc3c2ncn3C)s1` [Example 88, 4-Isobutyl-3-(6-methyl-6H-imidazo[4′,5′:3,4]-benzo[2,1-d]thiazol-2-ylamino)-benzamide]: 3.9 µM.
Compound `COc1ccccc1Nc1nc2c(ccc3cnccc32)s1` [Example 100, (2-Methoxy-phenyl)-thiazolo[4,5-f]isoquinolin-2-yl-amine.TFA] showed a Kd in assay [1] of 76 µM. The compound further registered an IC50 in assay [3] of 1.7 µM.
Regarding `COc1ccc(S(N)(=O)=O)cc1Nc1nc2c(ccc3cnccc32)s1` [Example 104, 4-Methoxy-3-(thiazolo[4,5-f]isoquinolin-2-ylamino)-benzenesulfonamide.TFA], the Kd in assay [1] was determined as 7.7 µM; in assay [2] it was 6.1 µM.
In turn, `COc1ccc(C#N)cc1Nc1nc2c(ccc3cnccc32)s1` [Example 151, 4-Methoxy-3-(thiazolo[4,5-f]isoquinolin-2-ylamino)-benzonitrile.TFA] yielded a Kd in assay [1] greater than 95 µM. Besides, in assay [3], the IC50 was greater than 20 µM.
Regarding `CCn1c(C)nc2ccc3sc(Nc4cnccc4OC)nc3c21` [Example 152, 8-Ethyl-N-(4-methoxypyridin-3-yl)-7-methyl-8H-imidazo[4′,5′:5,6]benzo[1,2-d]thiazol-2-amine], half-maximal inhibition in assay [3] (IC50) was put at 0.55 µM. In other words, the sub-micromolar range.
Consider `CC(C)Oc1ccc(S(N)(=O)=O)cc1Nc1nc2c(ccc3c2ccn3C)s1` [Example 161, 4-isopropoxy-3-((6-methyl-6H-thiazolo[4,5-e]indol-2-yl)amino)benzenesulfonamide.HCl], for which the Kd in assay [1] stood at 0.48 µM. The compound also showed an IC50 in assay [3] of 0.34 µM.
For `Cn1ccc2c3nc(Nc4cc(S(N)(=O)=O)ccc4OC(F)(F)F)sc3ccc21` [Example 162, 3-((6-methyl-6H-thiazolo[4,5-e]indol-2-yl)amino)-4-(trifluoromethoxy)benzenesulfonamide.HCl] the same measures were 0.43 µM and 0.64 µM.
The matching figures for `COc1ccc(S(C)(=O)=O)cc1Nc1nc2c(ccc3c2ccn3C)s1` [Example 163, N-(2-methoxy-5-(methylsulfonyl)phenyl)-6-methyl-6H-thiazolo[4,5-e]indol-2-amine.HCl]: 0.42 µM and 0.11 µM.
